# Results as given in patent publication US20240343761A1, “APELINERGIC MACROCYCLES AND USES THEREOF” (priority 2021, published 2024).
# Like-named read-outs stand apart in the source and are kept apart here. Bridge positions count the residues as written; N and C are the ends. Square brackets hold non-standard residues; d marks the D form. Peptide text beside a SMILES is read from it. Phe(4-Br) = N[C@@H](Cc1ccc(Br)cc1)C(=O)O; pGlu = O=C1CC[C@@H](C(=O)O)N1; Nle = CCCC[C@H](N)C(=O)O
# How the values were obtained:
# [1] = target: T1, hAPJ receptor (Homo sapiens, UniProt P35414); assay: BRET-based Gαi1 activation assay in HEK293 cells; format: cell-based
# T1 construct: expressed in transfected cells; host or cells: HEK293, transient transfection with PEI
# T1 sequence (P35414 1-380): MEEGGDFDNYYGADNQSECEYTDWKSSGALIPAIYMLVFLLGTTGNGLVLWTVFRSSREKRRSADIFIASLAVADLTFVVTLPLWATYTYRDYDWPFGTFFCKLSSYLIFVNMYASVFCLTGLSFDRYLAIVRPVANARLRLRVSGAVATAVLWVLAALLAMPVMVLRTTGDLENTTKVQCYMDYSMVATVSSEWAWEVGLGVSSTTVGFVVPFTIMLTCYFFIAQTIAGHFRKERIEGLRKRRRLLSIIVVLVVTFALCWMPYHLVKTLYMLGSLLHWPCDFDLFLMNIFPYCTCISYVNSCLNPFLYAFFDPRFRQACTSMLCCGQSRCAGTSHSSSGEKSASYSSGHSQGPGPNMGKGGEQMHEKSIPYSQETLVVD
# Protocol: (§1) HEK293 cells were cultivated in high glucose DMEM medium having 10% FBS, 100 U/mL penicillin/streptomycin, 2 mM glutamine, and 20 mM HEPES at 37° C. in T175 flasks under humidified chamber at 5% CO2. […] Cells were then washed with phosphate-buffered saline (PBS) and 90 μL Hanks' balanced salt solution was added in each well. Then, cells were stimulated with analogs at concentrations ranging from 10^−5 M to 10^−11 M for 5 min at 37° C. (Gαi1) or for 30 min at room temperature (β-arrestin2). After stimulation, 5 μM of coelanterazine 400A was added to each well and the plate was read using the BRET^2 filter set of a GeniosPro plate reader (Tecan, Austria). The BRET ratio was determined as GFP10em/RlucIIem. Data were plotted and EC50 values were determined using GraphPad Prism 8. Each data point represents the mean±SEM of at least three different experiments each done in triplicate.
# [2] = target: T1, hAPJ receptor; assay: BRET-based β-arrestin2 recruitment assay in HEK293 cells; format: cell-based
# Protocol: as §1
# [3] = target: T2, human APJ (hAPJ) (Homo sapiens, UniProt P35414); assay: Competitive radioligand binding ([125I][Nle75,Tyr77][Pyr1]-Ape13) on membranes of HEK293 cells stably expressing human APJ
# T2 construct: expressed in transfected cells; cell membranes
# T2 sequence (P35414 1-380): T1 sequence (P35414 1-380)
# Protocol: HEK293 cells stably expressing YFP-tagged human APJ were cultured in DMEM medium supplemented with 10% FBS, at 37° C. under a humid atmosphere maintaining 5% CO2. Antibiotic G418 (400 μg/mL) was added to maintain a selection pressure for APJ-expressing cells while penicillin/streptomycin (0.1%) were used to prevent bacterial contamination.
# Binding experiments were performed on cell membranes of HEK293 stably expressing the YFP-tagged human APJ receptor. Cells were frozen at −80° C. for storage and quickly thawed right before the experiments (1 min at 37° C.). […] The precipitate (cell membranes) was suspended in binding buffer (50 mM Tris-HCl, 0.2% BSA, pH 7.4). Binding assays were run in 96-well plates. […] (820 Ci/mmol)^3 and test ligand with a range of concentrations from 10^−1 to 10^−11 M in a total volume of 200 μL for 1 h at room temperature.
# The incubation mixtures were filtered through a glass fiber filter (Millipore, pre-absorbed of PEI 0.5% for 2 h at 4° C.) to remove unbound ligands, and the filter membranes were washed three times with 170 μL cold binding buffer (4° C.). The γ emission was measured using a 1470 Wizard γ-counter from PerkinElmer (Waltham, USA) (80% efficiency).
# [4] = Rat plasma stability (half-life in vitro); format: in vitro ADME; conditions: male, Sprague-Dawley, rat, plasma, Table I, rat plasma, 37° C., up to 24 h; for half-life at […]: read-out: Half-life in vitro (converted)
# Protocol: Plasma was obtained from male Sprague-Dawley rats by collecting blood in heparin tube and centrifugating at 13,000 rpm to remove blood cells. The isolated plasma was stored at −80° C. and thawed right before the test. In 96-well plate, 6 μL of peptide solution at 1 mM was incubated with 27 μL of plasma at 37° C. in an oven equipped with orbital shaker. Tightly fitted caps were used to seal the wells to avoid water evaporation during incubation. […] A 96-well UPLC plate was put at the bottom to collect the samples. Both plates were centrifuged at 500 g for 10 min at 4° C. to accelerate the filtration. […] The quantity of remaining peptide was plotted into an exponential one-phase decay curve using GraphPad Prism 8 which allowed to calculate peptide half-life. The results were presented as mean±SEM of at least 3 independent experiments, each done in simplicate.
# The percentage of remaining analogue was calculated by doing the ratio between AU of compound and AUC of internal standard. Half-lives were extrapolated from curves.
structure (smiles),measurement,setting,value
"CCCC[C@H](NC(=O)[C@@H]1CCCN1C(=O)CNC(=O)[C@H](CCCCN)NC(=O)[C@@H]1CCCC[C@H](NC(=O)[C@H](CCCNC(=N)N)NC(=O)[C@@H]2CCC(=O)N2)C(=O)N[C@@H](CCCNC(=N)N)C(=O)N[C@@H](CC(C)C)C(=O)N[C@@H](CO)C(=O)N1)C(=O)N1CCC[C@H]1C(=O)N[C@@H](Cc1ccccc1)C(=O)O [Compound 13, Pyr-R-c*[X-R-L-S-X]c-K-G-P-Nle-P-F]",Emax,"[1]; HEK293, Table V, read-out: Gαi1 Emax",102%
same,Emax,"[2]; HEK293, Table V, read-out: ß-arr2 Emax",75%
same,EC50,"[2]; Table I, read-out: EC50 β-arr2",199 ± 65 nM
same,EC50,"[2]; Table V, read-out: ß-arr2 EC50",199 ± 65 nM
same,Ki,"[3]; Table I, mean ± SEM, read-out: Ki binding",4.3 ± 0.3 nM
same,Ki,"[3]; Table V, read-out: Binding Ki",4.3 ± 0.3 nM
"CCCC[C@H](NC(=O)[C@@H]1CCCN1C(=O)CNC(=O)[C@H](CCCCN)NC(=O)[C@@H]1CC(=O)NC[C@H](NC(=O)[C@H](CCCNC(=N)N)NC(=O)[C@@H]2CCC(=O)N2)C(=O)N[C@@H](CCCNC(=N)N)C(=O)N[C@@H](CC(C)C)C(=O)N[C@@H](CO)C(=O)N1)C(=O)N1CCC[C@H]1C(=O)N[C@@H](Cc1ccccc1)C(=O)O [Compound 14, Pyr-R-c[Dap-R-L-S-Asp]c-K-G-P-Nle-P-F]",half-life at 0.182 mM,[4],0.2 ± 0.1 h
"CCCC[C@H](NC(=O)[C@@H]1CCCN1C(=O)CNC(=O)[C@H](CCCCN)NC(=O)[C@@H]1CC(=O)NCCCC[C@H](NC(=O)[C@H](CCCNC(=N)N)NC(=O)[C@@H]2CCC(=O)N2)C(=O)N[C@@H](CCCNC(=N)N)C(=O)N[C@@H](CC(C)C)C(=O)N[C@@H](CO)C(=O)N1)C(=O)N1CCC[C@H]1C(=O)N[C@@H](Cc1ccccc1)C(=O)O [Compound 17, Pyr-R-c[Lys-R-L-S-Asp]c-K-G-P-Nle-P-F] ([pGlu]RKRLSDKGP[Nle]PF-OH; lactam 3-7)",half-life at 0.182 mM,[4],0.1 h
"CCCC[C@H](NC(=O)[C@@H]1CCCN1C(=O)CNC(=O)[C@H](CCCCN)NC(=O)[C@@H]1CC=CCCC(=O)N[C@@H](CCCNC(=N)N)C(=O)N[C@@H](CC(C)C)C(=O)N[C@@H](CO)C(=O)N1)C(=O)N1CCC[C@H]1C(=O)N[C@@H](Cc1ccccc1)C(=O)O [Compound 22, Ø-c[X-R-L-S-X]c-K-G-P-Nle-P-F]",half-life at […],[4],2 ± 0.2 h
"CCCC[C@@H]1NC(=O)[C@@H](N)CC=CC[C@@H](C(=O)N[C@@H](CCCCN)C(=O)NCC(=O)N2CCC[C@H]2C(=O)N[C@@H](CCCC)C(=O)N2CCC[C@H]2C(=O)N[C@@H](Cc2ccccc2)C(=O)O)NC(=O)[C@H](CO)NC(=O)[C@H](CC(C)C)NC1=O [Compound 24, NH2-c[X-Nle-L-S-X]c-K-G-P-Nle-P-F]",half-life at […],[4],3.8 ± 0.5 h
"CCCC[C@H](NC(=O)[C@@H]1CCCN1C(=O)CNC(=O)[C@H](CCCCN)NC(=O)[C@@H]1Cc2cncn2CC=CC[C@H](N)C(=O)N[C@@H](CCCNC(=N)N)C(=O)N[C@@H](CC(C)C)C(=O)N[C@@H](CO)C(=O)N1)C(=O)N1CCC[C@H]1C(=O)N[C@@H](Cc1ccccc1)C(=O)O [Compound 25, NH2-c[X-R-L-S-Alh]c-K-G-P-Nle-P-F]",half-life at 0.182 mM,[4],2 ± 0.3 h
"CC(=O)N[C@@H](CCCCN)C(=O)N[C@@H](Cc1ccccc1)C(=O)N[C@@H](CCCNC(=N)N)C(=O)N[C@@H](CCCNC(=N)N)C(=O)N[C@@H](CCC(N)=O)C(=O)N[C@@H](CCCNC(=N)N)C(=O)N1CCC[C@H]1C(=O)N[C@@H](CCCNC(=N)N)C(=O)N[C@@H](CC(C)C)C(=O)N[C@H]1CCC(=O)NCCCC[C@@H](C(=O)N2CCC[C@H]2C(=O)N[C@@H](C)C(=O)N2CCC[C@H]2C(=O)N[C@@H](Cc2ccccc2)C(=O)O)NC(=O)[C@H](C)NC(=O)[C@H](Cc2c[nH]cn2)NC1=O [Compound 62, Ac-K-F-R-R-Q-R-P-R-L-[E-H-A-K]-P-A-P-F] (Ac-KFRRQRPRLEHAKPAPF-OH; lactam 10-13)",EC50,[2],1260 nM
same,Ki,[3]; Ki binding,11 ± 7 nM
"CC(C)C[C@@H]1NC(=O)[C@@H]2CCCN2C(=O)[C@@H](NC(=O)[C@H](CO)NC(=O)[C@H](CCCNC(=N)N)NC(=O)[C@H](CCCNC(=N)N)NC(=O)[C@@H]2CCC(=O)N2)CCC(=O)NCCCC[C@@H](C(=O)N[C@@H](CCCNC(=N)N)C(=O)N[C@H](C(=O)N2CCC[C@H]2C(=O)N[C@@H](Cc2ccc(Br)cc2)C(=O)N2CCC[C@H]2C(=O)O)C(C)C)NC(=O)[C@H](Cc2c[nH]cn2)NC1=O [Compound 92, Pyr-R-R-S-[E-P-L-H-K]-R-V-P-4BrF-P] ([pGlu]RRSEPLHKRVP[Phe(4-Br)]P-OH; lactam 5-9)",EC50,[1],16 ± 3 nM
same,EC50,[2],439 ± 91 nM
same,Ki,[3]; Binding Ki,15 ± 2 nM
